Assay results reported in patent US20240409585A1, “MACROCYCLIC IMMUNOMODULATORS” (priority 2021, published 2024).
Bridge positions count the residues as written; N and C are the ends. Square brackets hold non-standard residues; d marks the D form. Peptide text beside a SMILES is read from it. ξ: configuration not given here. Phe(3-CF3) = N[C@@H](Cc1cccc(C(F)(F)F)c1)C(=O)O; Ala(morpholin-4-yl) = N[C@@H](CN1CCOCC1)C(=O)O; Phe(4-COOH) = N[C@@H](Cc1ccc(C(=O)O)cc1)C(=O)O; Bip = N[C@@H](Cc1ccc(-c2ccccc2)cc1)C(=O)O; dPhe(4-Br) = N[C@H](Cc1ccc(Br)cc1)C(=O)O; Phe(3-Me) = Cc1cccc(C[C@H](N)C(=O)O)c1; Val(3-OH) = CC(C)(O)[C@H](N)C(=O)O; Cha = N[C@@H](CC1CCCCC1)C(=O)O; Cit = NC(=O)NCCC[C@H](N)C(=O)O; Thr(3ξ) = CC(O)[C@H](N)C(=O)O; NMeA = CN[C@@H](C)C(=O)O; Orn = NCCC[C@H](N)C(=O)O; Dab = NCC[C@H](N)C(=O)O

These compounds were tested against T1, PE-labeled human PD-L1-Ig binding to Jurkat cell line over-expressing human PD-1 (Jurkat-PD-1) (Homo sapiens, UniProt Q15116) (assay: Jurkat-PD-1 Cell Binding High-Content Screening Assay (CBA): Method 1). Conditions: Jurkat-hPD-1 cells, PE-labeled PD-L1-Ig 20 nM final; read-out: Jurkat HPDL1 PD1 IC50 (uM) (Method 1).
T1 construct: expressed in transfected cells; host or cells: Jurkat
T1 sequence (Q15116 25-288): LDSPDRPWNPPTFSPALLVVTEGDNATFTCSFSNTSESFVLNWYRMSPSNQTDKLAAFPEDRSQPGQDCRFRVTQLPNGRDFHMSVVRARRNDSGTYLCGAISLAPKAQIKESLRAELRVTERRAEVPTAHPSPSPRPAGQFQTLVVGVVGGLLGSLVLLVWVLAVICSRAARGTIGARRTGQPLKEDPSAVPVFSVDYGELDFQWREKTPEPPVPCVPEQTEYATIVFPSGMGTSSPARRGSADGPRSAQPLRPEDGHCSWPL
Protocol: Phycoerythrin (PE) was covalently linked to the Ig epitope tag of human PD-L1-Ig and fluorescently-labeled PD-L1-Ig was used for binding studies with a Jurkat cell line over-expressing human PD-1 (Jurkat-PD-1). Briefly, 8×10^3 Jurkat-hPD-1 cells were seeded into 384 well plates in 20 μl of DMEM supplemented with 10% fetal calf serum. 100 nl of compound was added to cells followed by incubation at 37° C. for 2 hours. Then, 5 μl of PE-labeled PD-L1-Ig (20 nM final), diluted in DMEM supplemented with 10% fetal calf serum. […] Data was collected and processed using a Cell Insight NXT High Content Imager and associated software.

SMILES	IC50 [µM]
CC(C)C[C@@H]1NC(=O)[C@H](Cc2c[nH]c3ccccc23)NC(=O)[C@H](CC(=O)O)NC(=O)[C@H](Cc2ccc(O)cc2)NC(=O)[C@H](Cc2ccccc2)NC(=O)CSC[C@@H](C(=O)NCC(N)=O)NC(=O)[C@H](CO)NC(=O)[C@H](C(C)C)NC(=O)[C@H](CC(C)C)NC(=O)[C@H](CCN)NC(=O)[C@@H](CC(C)C)NC(=O)[C@H](C)N(C)C(=O)[C@H](CCCNC(N)=O)NC(=O)[C@H](Cc2ccc(-c3ccccc3)cc2)NC1=O [Compound 1512] ({CH2CO}-FYDWL[Bip][Cit][NMeA][dL][Dab]LVSCG-NH2; thioether N-14)	0.02
CC(C)C[C@@H]1NC(=O)[C@H](CCCNC(=N)N)NC(=O)[C@@H](Cc2ccc(Br)cc2)NC(=O)[C@H](C)N(C)C(=O)[C@H](CCCNC(=N)N)NC(=O)[C@H](Cc2ccc(-c3ccccc3)cc2)NC(=O)[C@H](C(C)C)NC(=O)[C@H](Cc2c[nH]c3ccccc23)NC(=O)[C@H](CC(=O)O)NC(=O)[C@H](Cc2ccc(O)cc2)NC(=O)[C@H](Cc2ccccc2)NC(=O)CSC[C@@H](C(=O)N[C@@H](C)C(N)=O)NC(=O)[C@H]([C@@H](C)O)NC(=O)[C@H](C(C)C)NC1=O [Compound 1086] ({CH2CO}-FYDWV[Bip]R[NMeA][dPhe(4-Br)]RLVTCA-NH2; thioether N-14)	0.69
CC(C)C[C@@H]1NC(=O)[C@H](CCN)NC(=O)[C@@H](CC(C)C)NC(=O)[C@H](C)N(C)C(=O)[C@H](CCCNC(=N)N)NC(=O)[C@H](Cc2ccc(-c3ccccc3)cc2)NC(=O)[C@H](C(C)C)NC(=O)[C@H](Cc2c[nH]c3ccccc23)NC(=O)[C@H](CC(=O)O)NC(=O)[C@H](Cc2ccc(O)cc2)NC(=O)[C@H](CC(N)=O)NC(=O)CSC[C@@H](C(=O)N[C@@H](CO)C(N)=O)NC(=O)[C@H]([C@@H](C)O)NC(=O)[C@H](C(C)C)NC1=O [Compound 1179] ({CH2CO}-NYDWV[Bip]R[NMeA][dL][Dab]LVTCS-NH2; thioether N-14)	0.07
CC(C)C[C@H]1NC(=O)[C@H](C)N(C)C(=O)[C@H](CCC(N)=O)NC(=O)[C@H](Cc2ccc(-c3ccccc3)cc2)NC(=O)[C@H](Cc2ccc(C(=O)O)cc2)NC(=O)[C@H](Cc2cccc(C(F)(F)F)c2)NC(=O)[C@H](CC(N)=O)NC(=O)[C@H](Cc2ccc(C(=O)O)cc2)NC(=O)[C@H](CN2CCOCC2)NC(=O)CSC[C@@H](C(=O)N[C@@H](CCN)C(N)=O)NC(=O)[C@H](CCCN)NC(=O)[C@H](C(C)C)NC(=O)[C@H](CC2CCCCC2)NC(=O)[C@H](CCN)NC1=O [Example 2279] ({CH2CO}-[Ala(morpholin-4-yl)][Phe(4-COOH)]N[Phe(3-CF3)][Phe(4-COOH)][Bip]Q[NMeA][dL][Dab][Cha]V[Orn]C[Dab]-NH2; thioether N-14)	0.11
CC(C)C[C@@H]1NC(=O)[C@H](CC(N)=O)NC(=O)[C@@H](CC(C)C)NC(=O)[C@H](C)N(C)C(=O)[C@H](CCCNC(N)=O)NC(=O)[C@H](Cc2ccc(-c3ccccc3)cc2)NC(=O)[C@H](C(C)C)NC(=O)[C@H](Cc2c[nH]c3ccccc23)NC(=O)[C@H](CC(=O)O)NC(=O)[C@H](Cc2ccc(O)cc2)NC(=O)[C@H](Cc2ccccc2)NC(=O)CSC[C@@H](C(=O)N[C@@H](C)C(N)=O)NC(=O)[C@H](C(C)O)NC(=O)[C@H](C(C)C)NC1=O (stereo partly drawn) [Compound 2031] ({CH2CO}-FYDWV[Bip][Cit][NMeA][dL]NLV[Thr(3ξ)]CA-NH2; thioether N-14)	0.07
Cc1cccc(C[C@@H]2NC(=O)[C@H](CC(=O)O)NC(=O)[C@H](Cc3ccc(O)cc3)NC(=O)[C@H](CC(N)=O)NC(=O)CSC[C@@H](C(=O)N[C@H](C)C(N)=O)NC(=O)[C@H]([C@@H](C)O)NC(=O)[C@H](C(C)C)NC(=O)[C@H](CC3CCCCC3)NC(=O)[C@H](CCN)NC(=O)[C@@H](CC(C)C)NC(=O)[C@H](C)N(C)C(=O)[C@H](CCCNC(N)=O)NC(=O)[C@H](Cc3ccc(-c4ccccc4)cc3)NC(=O)[C@H](C(C)(C)O)NC2=O)c1 [Compound 1704] ({CH2CO}-NYD[Phe(3-Me)][Val(3-OH)][Bip][Cit][NMeA][dL][Dab][Cha]VTC[dA]-NH2; thioether N-14)	0.15
